Experimental data from patent publication US7098243B2, “Bicyclic carbohydrates as antiviral bioactives for the treatment of infections caused by the alphaherpesvirinae HSV-1 and HSV-2” (Kemin Pharma Europe B.V.B.A., priority 2003, dated 2006).
≈ marks a conversion by molar mass, not a printed value. Entries after “also recorded” stand apart in the source; their conditions may differ. Read-outs that look alike come from different tables or passages of the source.

What was measured:
[1] = system: herpes simplex virus type 1 (HSV-1); experiment: Cytopathic effect inhibition assay (CPE) against HSV-1 in HFF cells; conditions: for EC50: Human alphaherpesvirus 1, HFF
[2] = system: herpes simplex virus type 2 (HSV-2); experiment: Cytopathic effect inhibition assay (CPE) against HSV-2 in HFF cells; conditions: for EC50: Human alphaherpesvirus 2, HFF
[3] = system: human cytomegalo virus (HCMV); experiment: Inhibition of viral-induced cytopathicity, HCMV in HFF cells; format: cell-based
[4] = system: varicella zoster virus (VZV); experiment: Inhibition of viral-induced cytopathicity, VZV in HFF cells; format: cell-based
West Nile virus = experiment: Inhibition of viral-induced cytopathicity, West Nile virus in Vero cells; format: cell-based
HFF cells = experiment: Toxicity (reduction of cell viability) in the HSV, HCMV and VZV screenings; format: cell-based; conditions: reduction of cell viability by 50%
[5] = system: Staphylococcus aureus ATCC29213; experiment: Antibacterial microdilution screening (Bioscreen C), S. aureus; format: cell-based; conditions: 16 hours at 35° C., Mueller-Hinton broth
E. coli ATCC 25922 = experiment: Antibacterial microdilution screening (Bioscreen C), E. coli; format: cell-based; conditions: 16 hours at 35° C., Mueller-Hinton broth
[6] = system: Clostridium perfringens ATCC 13124; format: cell-based; conditions: 16 hours at 35° C., Mueller-Hinton broth
[7] = system: Pseudomonas aeruginosa ATCC 27853; experiment: Antibacterial microdilution screening (Bioscreen C), P. aeruginosa; format: cell-based; conditions: 16 hours at 35° C., Mueller-Hinton broth
[8] = system: Candida albicans ATCC 24433; experiment: Antifungal microdilution screening (Bioscreen C), C. albicans; format: cell-based; conditions: 24 hours at 35° C., RPMI 1640
[9] = system: Cryptococcus neoformans ATCC 90112; experiment: Antifungal microdilution screening (Bioscreen C), C. neoformans; format: cell-based; conditions: 48 hours at 35° C., RPMI 1640
[10] = system: Trichophyton mentagrophytes ATCC 9533; experiment: Antifungal microdilution screening (Bioscreen C), T. mentagrophytes; format: cell-based; conditions: 5 days at 30° C., RPMI 1640
[11] = system: Aspergillus fumigatus ATCC 2895; experiment: Antifungal microdilution screening (Bioscreen C), A. fumigatus; format: cell-based; conditions: 3 days at 30° C., RPMI 1640
Vero cells = conditions: West Nile screening, reduction of cell viability by 50%
[12] = compounds related to Compound A1 (Table 4)
[13] = viral-induced cytopathicity in HFF cell cultures

CCO[C@@H]1[C@@H](OCC)[C@H](Cc2ccccc2)O[C@@H]2CO[C@@H](c3ccccc3)O[C@@H]12
EC50 ([1]; read-out: EC50 HSV-1): > 80 µg/mL | EC50 ([2]; read-out: EC50 HSV-2): > 80 µg/mL

CO[C@@H]1[C@@H](OC)[C@H](Cc2ccccc2)O[C@@H]2CO[C@@H](c3ccc(Cl)cc3)O[C@@H]12
EC50 ([1]; read-out: EC50 HSV-1): > 16 µg/mL | EC50 ([2]; read-out: EC50 HSV-2): > 16 µg/mL

C=CCO[C@@H]1[C@@H](OCC=C)[C@H](Cc2ccccc2)O[C@@H]2CO[C@@H](c3ccc(Cl)cc3)O[C@@H]12
EC50 HSV-1 [1, 12]: >16 µg/mL | EC50 HSV-2 [2, 12]: >16 µg/mL

Nc1nc2c(ncn2COCCO)c(=O)[nH]1 [ACV, Acyclovir, reference compound]
EC50 ([1]; read-out: ACV EC50): 1.2 µg/mL (≈ 5.33 µM) | EC50 ([2]; read-out: ACV EC50): 0.4 µg/mL (≈ 1.78 µM)

CCO[C@@H]1[C@@H](OCC)[C@H](Cc2ccccc2)O[C@@H]2CO[C@@H](c3ccc(Cl)cc3)O[C@@H]12 [Compound A1]
Compound A1 S.I. (CC50/EC50) [3]: <3.5 | Compound A1 EC50 [3, 13]: > 20 µg/mL | Compound A1 S.I. (CC50/EC50) [4]: 0 | Compound A1 EC50 [4, 13]: > 100 µg/mL | Compound A1 S.I. (CC50/EC50) (West Nile virus; West Nile): 0 | Compound A1 EC50 (West Nile virus; West Nile virus, Vero cells): > 50 µg/mL | Compound A1 CC50 (HFF cells; HCMV screening): 71.0 µg/mL | Compound A1 CC50 (HFF cells; HSV-1 screening): >100 µg/mL | Compound A1 CC50 (HFF cells; HSV-2 screening): >100 µg/mL | Compound A1 CC50 (HFF cells; VZV screening): >100 µg/mL | MIC S. aureus ATCC 29213 [5]: >25 µg/mL | MIC E. coli ATCC 25922 (E. coli ATCC 25922): >25 µg/mL | MIC C. perfringens ATCC 13124 [6]: >25 µg/mL | MIC P. aeruginosa ATCC 27853 [7]: >25 µg/mL | MIC C. albicans ATCC 24433 [8]: >25 µg/mL | MIC C. neoformans ATCC 90112 [9]: >25 µg/mL | MIC T. mentagrophytes ATCC 9533 [10]: >25 µg/mL | MIC A. fumigatus ATCC 2895 [11]: >25 µg/mL | Compound A1 CC50 (Vero cells): 50 µg/mL | Compound A1 S.I. (CC50/EC50) ([1]; HSV-1): >33.3 | Compound A1 EC50 ([1]; HSV-1, viral-induced cytopathicity in HFF cell cultures): 3 µg/mL | Activity against HSV-1 (in words) ([1]; anti-viral screening): strong activity | Compound A1 S.I. (CC50/EC50) ([2]; HSV-2): >3333 | Compound A1 EC50 ([2]; HSV-2, viral-induced cytopathicity in HFF cell cultures): < 0.03 µg/mL | Activity against HSV-2 (in words) ([2]; anti-viral screening): strong activity; also recorded: superior effect against HSV-2

Nc1nc(O)c2ncn(COC(CO)CO)c2n1 [GCV, ganciclovir, reference compound]
EC50 ([3]; Human betaherpesvirus 5, HFF, reference product, read-out: GCV EC50): 0.8 µg/mL (≈ 3.13 µM)
